The nature of one series: Solubility in PBS. The format is physicochemical. The method in brief:
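Solubility is derived from HPLC peak areas: the ratio of the PBS supernatant peak to a 50 μM DMSO peptide peak, times 50 uM.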

A short description of a further series: CHI Log D procedure. The format is physicochemical.
Series [1] addresses T1, full-length beta-Catenin (Uniprot ID P35222) (Homo sapiens, UniProt P35222).
T1 construct: 10 nM full-length beta-Catenin (Uniprot ID P35222)
T1 sequence (P35222 1-781): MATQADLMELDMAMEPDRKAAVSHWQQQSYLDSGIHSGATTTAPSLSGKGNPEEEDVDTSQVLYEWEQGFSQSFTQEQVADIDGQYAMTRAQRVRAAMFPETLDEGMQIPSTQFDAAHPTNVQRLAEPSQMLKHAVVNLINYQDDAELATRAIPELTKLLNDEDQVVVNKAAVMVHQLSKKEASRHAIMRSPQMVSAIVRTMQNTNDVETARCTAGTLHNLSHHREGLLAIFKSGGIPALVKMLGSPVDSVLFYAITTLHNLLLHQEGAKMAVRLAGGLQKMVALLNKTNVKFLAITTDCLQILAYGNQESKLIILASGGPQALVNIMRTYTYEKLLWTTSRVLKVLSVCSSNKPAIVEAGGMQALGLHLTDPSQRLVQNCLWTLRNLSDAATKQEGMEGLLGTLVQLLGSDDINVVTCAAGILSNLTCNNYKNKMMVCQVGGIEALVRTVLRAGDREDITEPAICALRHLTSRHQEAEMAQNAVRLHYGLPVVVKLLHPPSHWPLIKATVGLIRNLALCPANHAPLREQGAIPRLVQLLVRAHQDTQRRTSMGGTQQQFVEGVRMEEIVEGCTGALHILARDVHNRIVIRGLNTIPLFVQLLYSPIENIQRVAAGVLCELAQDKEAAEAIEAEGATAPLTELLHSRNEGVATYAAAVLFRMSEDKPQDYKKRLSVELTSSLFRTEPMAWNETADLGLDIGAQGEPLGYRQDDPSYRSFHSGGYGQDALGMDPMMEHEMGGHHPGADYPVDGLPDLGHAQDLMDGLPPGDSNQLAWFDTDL
The experiment in a line: Fluorescence polarization IC50 (beta-catenin / 5FAM-TCF4 10-53 competition). It counts as binding. Background: In fluorescence polarisation assays a small probe gives low polarisation when free and higher when bound to something large.

[2] abbreviates: Table E2-1, read-out: beta-Catenin FP IC50.
[3] abbreviates: fluorescence polarization, beta-catenin, read-out: FP EC50.

SMILES strings stand for the structures. pIC50: −log10 of the molar value. Converted amounts (≈) assume the structure as drawn. Where two headings read alike, the source gives them in different places.

A word on the Solubility: it is the concentration that dissolves in the medium under given conditions. The chromatographic logD is lipophilicity estimated from chromatographic retention. In general, IC50 refers to the point on the concentration scale where inhibition reaches its midpoint. Low readings indicate inhibition by little substance, high ones a need for much substance. `CC(=O)N1CCC[C@]12CC=CCCCC1(CCCC=CCCCCCC[C@@](C)(C(=O)N[C@@H](Cc3ccccc3)C(=O)N[C@@H](Cc3c[nH]c4ccccc34)C(=O)N[C@@H](CCC(N)=O)C(N)=O)NC(=O)[C@H](C(C)C)NC(=O)[C@H](Cc3ccccc3)NC(=O)[C@H](C)NC(=O)[C@H](C)NC(=O)[C@H](C)NC(=O)[C@H](CC(=O)O)NC1=O)NC(=O)[C@H](C)NC(=O)[C@H](CC(=O)O)NC2=O` (stereo partly drawn) [I-352, Ac-PL3-Asp-Ala-B5-Asp-Ala-Ala-Ala-Phe-Val-S8-Phe-Trp-Gln-NH2]: in “Solubility in PBS”, the “Solubility” value came out at 10 µM (≈ 17.4 µg/mL). The molecule also returned a chromatographic logD in “CHI Log D procedure” (pH 7.4) of 2.51. For the same molecule, in series [1] (beta-Catenin FP IC50 (nM), Table E2-1), the IC50 is 5000 nM.
For the molecule `CC(=O)N1CCC[C@]12CC=CCCCC1(CCCC=CCCCCCC[C@@](C)(C(=O)N[C@@H](Cc3ccc(C#N)cc3)C(=O)N[C@@H](Cc3csc4ccccc34)C(=O)N[C@@H](CCC(N)=O)C(N)=O)NC(=O)[C@H](C(C)C)NC(=O)[C@H](Cc3ccccc3)NC(=O)[C@H](C)NC(=O)[C@H](C)NC(=O)[C@H](CC(=O)O)NC(=O)[C@H](CC(=O)O)NC1=O)NC(=O)[C@H](C)NC(=O)[C@H](CC(=O)O)NC2=O` (stereo partly drawn) [I-359, Ac-PL3-Asp-Ala-B5-Asp-Asp-Ala-Ala-Phe-Val-S8-4CNF-BztA-Gln-NH2], the Solubility in “Solubility in PBS” (Solubility (uM)) turned out to be 30 µM (≈ 54.7 µg/mL). This molecule came in with a chromatographic logD in the series “CHI Log D procedure” (pH 7.4, CHI Log D) of 2.06. Also, the pIC50 in series [1] (setting [2]) was 5.30.
Consider `CC(=O)N1CCC[C@]12CC=CCCCC1(CCCC=CCCCCCC[C@@](C)(C(=O)N[C@@H](Cc3ccccc3)C(=O)N[C@@H](Cc3csc4ccccc34)C(=O)N[C@@H](Cc3c[nH]cn3)C(N)=O)NC(=O)[C@H](CCC(N)=O)NC(=O)[C@H](Cc3ccccc3)NC(=O)[C@H](C)NC(=O)[C@H](C)NC(=O)[C@H](CC(=O)O)NC(=O)[C@H](CC(=O)O)NC1=O)NC(=O)[C@H](C)NC(=O)[C@H](CC(=O)O)NC2=O` (stereo partly drawn) [I-360, Ac-PL3-Asp-Ala-B5-Asp-Asp-Ala-Ala-Phe-Gln-S8-Phe-BztA-His-NH2], for which the “Solubility” value in “Solubility in PBS” was determined as 44 µM (≈ 80.8 µg/mL). Besides, the “CHI Log D” value in “CHI Log D procedure” (pH 7.4) came out at 2.017. Further, the pIC50 in series [1] (setting [2]) and in series [1] (setting [3]) was 6.84 throughout.
Consider `CC(=O)N1CCC[C@]12CC=CCCCC1(CCCC=CCCCCCC[C@@](C)(C(=O)N[C@@H](Cc3ccccc3)C(=O)N[C@@H](Cc3csc4ccccc34)C(=O)N[C@@H](Cc3c[nH]cn3)C(N)=O)NC(=O)[C@H](CCC(N)=O)NC(=O)[C@H](Cc3ccccc3)NC(=O)[C@H](C)NC(=O)[C@H](C)NC(=O)[C@H](CC(=O)O)NC(=O)[C@H](CC(=O)O)NC1=O)NC(=O)[C@H](C)NC(=O)[C@H](CC(=O)O)NC2=O` (stereo partly drawn) [I-361, Ac-PL3-Asp-Ala-B5-Asp-Asp-Ala-Ala-Phe-Gln-S8-Phe-BztA-His-NH2], for which, in the series “Solubility in PBS”, the “Solubility” value was determined as 46 µM (≈ 84.5 µg/mL). For the same molecule, the “CHI Log D” value in the series “CHI Log D procedure” (pH 7.4) is listed as 2.058. The pIC50 in series [1] (setting [2]) and in series [1] (setting [3]) was 7.38 throughout.
`CC(=O)N1CCC[C@]12CC=CCCCC1(CCCC=CCCCCCC[C@@](C)(C(=O)N[C@@H](Cc3c[nH]cn3)C(=O)N[C@@H](Cc3csc4ccccc34)C(=O)N[C@@H](CCC(N)=O)C(N)=O)NC(=O)[C@H](C)NC(=O)[C@H](Cc3ccccc3)NC(=O)[C@H](C)NC(=O)[C@H](C)NC(=O)[C@H](CC(=O)O)NC(=O)[C@H](CC(=O)O)NC1=O)NC(=O)[C@H](C)NC(=O)[C@H](CC(=O)O)NC2=O` (stereo partly drawn) [I-362, Ac-PL3-Asp-Ala-B5-Asp-Asp-Ala-Ala-Phe-Ala-S8-His-BztA-Gln-NH2] showed a Solubility in the series “Solubility in PBS” (Solubility (uM)) of 47 µM (≈ 82.7 µg/mL). Moreover, the chromatographic logD in “CHI Log D procedure” (pH 7.4, CHI Log D) came to 1.44. Further, the pIC50 in series [1] (setting [2]) is 5.44.
Turning to `CC(=O)N1CCC[C@]12CC=CCCCC1(CCCC=CCCCCCC[C@@](C)(C(=O)N[C@@H](Cc3ccccc3)C(=O)N[C@@H](Cc3csc4ccccc34)C(=O)N[C@@H](CCC(N)=O)C(N)=O)NC(=O)[C@H](C)NC(=O)[C@H](Cc3ccccc3C)NC(=O)[C@H](C)NC(=O)[C@H](C)NC(=O)[C@H](CC(=O)O)NC(=O)[C@H](CC(=O)O)NC1=O)NC(=O)[C@H](C)NC(=O)[C@H](CC(=O)O)NC2=O` (stereo partly drawn) [I-365, Ac-PL3-Asp-Ala-B5-Asp-Asp-Ala-Ala-2MeF-Ala-S8-Phe-BztA-Gln-NH2], the “Solubility” value in “Solubility in PBS” amounted to 48 µM (≈ 85.6 µg/mL). Besides, the “CHI Log D” value in “CHI Log D procedure” (pH 7.4) turned out to be 2.038. Also, the pIC50 in series [1] (setting [2]) and in series [1] (setting [3]) was 5.57 each time.
Turning to `CC(=O)N1CCC[C@]12CC=CCCCC1(CCCC=CCCCCCC[C@@](C)(C(=O)N[C@@H](Cc3ccc(C)cc3)C(=O)N[C@@H](Cc3csc4ccccc34)C(=O)N[C@@H](CCC(N)=O)C(N)=O)NC(=O)[C@H](C)NC(=O)[C@H](Cc3ccccc3)NC(=O)[C@H](C)NC(=O)[C@H](C)NC(=O)[C@H](CC(=O)O)NC(=O)[C@H](CC(=O)O)NC1=O)NC(=O)[C@H](C)NC(=O)[C@H](CC(=O)O)NC2=O` (stereo partly drawn) [I-369, Ac-PL3-Asp-Ala-B5-Asp-Asp-Ala-Ala-Phe-Ala-S8-4MeF-BztA-Gln-NH2], the Solubility in “Solubility in PBS” (Solubility (uM)) was determined as 40 µM (≈ 71.4 µg/mL). Also, the chromatographic logD in “CHI Log D procedure” (pH 7.4, CHI Log D) came to 1.66. Moreover, in series [1] (setting [2]), the pIC50 was 5.64.
The matching figures for `CC(=O)N1CCC[C@]12CC=CCCCC1(CCCC=CCCCCCC[C@@](C)(C(=O)N[C@@H](Cc3ccccc3)C(=O)N[C@@H](Cc3csc4ccccc34)C(=O)N[C@@H](CCC(N)=O)C(N)=O)NC(=O)[C@H](C)NC(=O)[C@H](Cc3ccc4ccccc4c3)NC(=O)[C@H](C)NC(=O)[C@H](C)NC(=O)[C@H](CC(=O)O)NC(=O)[C@H](CC(=O)O)NC1=O)NC(=O)[C@H](C)NC(=O)[C@H](CC(=O)O)NC2=O` (stereo partly drawn) [I-370, Ac-PL3-Asp-Ala-B5-Asp-Asp-Ala-Ala-2NapA-Ala-S8-Phe-BztA-Gln-NH2]: 47 µM (≈ 85.5 µg/mL), 2.18 and 5.81.
The matching figures for `CC(=O)N1CCC[C@]12CC=CCCCC1(CCCC=CCCCCCC[C@@](C)(C(=O)N[C@@H](Cc3cccc(F)c3)C(=O)N[C@@H](Cc3csc4ccccc34)C(=O)N[C@@H](CCC(N)=O)C(N)=O)NC(=O)[C@H](C)NC(=O)[C@H](Cc3ccccc3)NC(=O)[C@H](C)NC(=O)[C@H](C)NC(=O)[C@H](CC(=O)O)NC(=O)[C@H](CC(=O)O)NC1=O)NC(=O)[C@H](C)NC(=O)[C@H](CC(=O)O)NC2=O` (stereo partly drawn) [I-371, Ac-PL3-Asp-Ala-B5-Asp-Asp-Ala-Ala-Phe-Ala-S8-3FF-BztA-Gln-NH2]: 48 µM (≈ 85.8 µg/mL), 2.14 and 5.86.
In the same order, the values of `CC(=O)N1CCC[C@]12CC=CCCCC1(CCCC=CCCCCCC[C@@](C)(C(=O)N[C@@H](Cc3cccc(F)c3)C(=O)N[C@@H](Cc3csc4ccccc34)C(=O)N[C@@H](CCC(N)=O)C(N)=O)NC(=O)[C@H](C)NC(=O)[C@H](Cc3ccccc3)NC(=O)[C@H](C)NC(=O)[C@H](C)NC(=O)[C@H](CCC(=O)O)NC(=O)[C@H](CC(=O)O)NC1=O)NC(=O)[C@H](C)NC(=O)[C@H](CC(=O)O)NC2=O` (stereo partly drawn) [I-372, Ac-PL3-Asp-Ala-B5-Asp-Glu-Ala-Ala-Phe-Ala-S8-3FF-BztA-Gln-NH2] are 44 µM (≈ 79.3 µg/mL), 2.17 and 5.68.
For `CC(=O)N1CCC[C@]12CC=CCCCC1(CCCC=CCCCCCC[C@@](C)(C(=O)N[C@@H](Cc3ccccc3)C(=O)N[C@@H](Cc3csc4ccccc34)C(=O)N[C@@H](CCC(N)=O)C(N)=O)NC(=O)[C@H](C(C)C)NC(=O)[C@H](Cc3cccc(C(F)(F)F)c3)NC(=O)[C@H](C)NC(=O)[C@H](C)NC(=O)[C@H](CC(=O)O)NC(=O)[C@H](CC(=O)O)NC1=O)NC(=O)[C@H](C)NC(=O)[C@H](CC(=O)O)NC2=O` (stereo partly drawn) [I-373, Ac-PL3-Asp-Ala-B5-Asp-Asp-Ala-Ala-3F3MeF-Val-S8-Phe-BztA-Gln-NH2], the Solubility in the series “Solubility in PBS” (Solubility (uM)) turned out to be 26 µM (≈ 48.5 µg/mL). The same molecule had a chromatographic logD in the series “CHI Log D procedure” (pH 7.4, CHI Log D) of 2.3. Also, the pIC50 in series [1] (setting [2]) was 6.02.
`CC(=O)N1CCC[C@]12CC=CCCCC1(CCCC=CCCCCCC[C@@](C)(C(=O)N[C@@H](Cc3ccccc3)C(=O)N[C@@H](Cc3csc4ccccc34)C(=O)N[C@@H](CCC(N)=O)C(N)=O)NC(=O)[C@H](C)NC(=O)[C@H](Cc3cccc(C(F)(F)F)c3)NC(=O)[C@H](C)NC(=O)[C@H](C)NC(=O)[C@H](CC(=O)O)NC(=O)[C@H](CC(=O)O)NC1=O)NC(=O)[C@H](C)NC(=O)[C@H](CC(=O)O)NC2=O` (stereo partly drawn) [I-374, Ac-PL3-Asp-Ala-B5-Asp-Asp-Ala-Ala-3F3MeF-Ala-S8-Phe-BztA-Gln-NH2]: in the series “Solubility in PBS”, the “Solubility” value amounted to 49 µM (≈ 90.1 µg/mL). The “CHI Log D” value in “CHI Log D procedure” (pH 7.4) is listed as 2.242. In addition, the pIC50 in series [1] (setting [2]) and in series [1] (setting [3]) was 5.52 in each case.
